Results as given in patent US20130072430A1, “METHODS FOR TREATMENT OR PROPHYLAXIS OF KIDNEY OR LIVER DYSFUNCTION” (NPS PHARMACEUTICALS, INC., priority 2010, published 2013).

System: Human patients with short bowel syndrome
Experiment: Example 1: kidney diagnostic biomarkers (urea nitrogen, creatinine, GFR) in short bowel syndrome patients, every four weeks for 24 weeks
Type: in vivo
Design: CREATININE (RATE BLANKED) Change from Baseline, Median / GFR, Median / GFR Change from Baseline, Median / UREA NITROGEN, Median / UREA NITROGEN Change from Baseline, Median: unit not given here
Conditions: 0.05 mg/kg/day; for CREATININE (RATE BLANKED), Median: unit assumed
Procedure: Human patients with short bowel syndrome were divided into three groups: a control group (16 total individuals) to receive placebo, an experimental group (35 total individuals) to receive teduglutide at 0.05 mg/kg/day throughout the study, and an experimental group (32 total individuals) to receive teduglutide at 0.1 mg/kg/day throughout the study. Patients were treated by subcutaneous injection of placebo or the appropriate dose of teduglutide. As individuals with short bowel syndrome are likely to experience associated liver and kidney disease, known biomarkers of liver and kidney function were monitored every four weeks, for 24 weeks. The liver biomarkers tested included total bilirubin, ALT and AST and ALP. The kidney biomarkers tested included urea nitrogen, creatinine and GFR. Before administration of placebo or teduglutide, diagnostic biomarker levels were tested to establish a baseline for each individual.
To visualize the effect of GLP-2 on the levels of the diagnostic biomarkers, the average change from baseline was calculated for the placebo and teduglutide treated groups for each visit after a baseline was established. The average change from baseline of each group is depicted in FIGS. […]. The numerical figures for each diaanostic biomarker at each time point are depicted in Table 1.
The raw data for this sorting is reproduced in Table 2 below.

`CC[C@H](C)[C@H](NC(=O)[C@H](Cc1ccccc1)NC(=O)[C@H](CC(=O)O)NC(=O)[C@H](CCCNC(=N)N)NC(=O)[C@H](C)NC(=O)[C@H](C)NC(=O)[C@H](CC(C)C)NC(=O)[C@H](CC(N)=O)NC(=O)[C@H](CC(=O)O)NC(=O)[C@H](CC(C)C)NC(=O)[C@@H](NC(=O)[C@@H](NC(=O)[C@H](CC(N)=O)NC(=O)[C@H](CCSC)NC(=O)[C@H](CCC(=O)O)NC(=O)[C@H](CC(=O)O)NC(=O)[C@H](CO)NC(=O)[C@H](Cc1ccccc1)NC(=O)[C@H](CO)NC(=O)CNC(=O)[C@H](CC(=O)O)NC(=O)CNC(=O)[C@@H](N)Cc1c[nH]cn1)[C@@H](C)O)[C@@H](C)CC)C(=O)N[C@@H](CC(N)=O)C(=O)N[C@@H](Cc1c[nH]c2ccccc12)C(=O)N[C@@H](CC(C)C)C(=O)N[C@H](C(=O)N[C@@H](CCC(N)=O)C(=O)N[C@H](C(=O)N[C@@H](CCCCN)C(=O)N[C@H](C(=O)N[C@H](C(=O)N[C@@H](CC(=O)O)C(=O)O)[C@@H](C)O)[C@@H](C)CC)[C@@H](C)O)[C@@H](C)CC` [teduglutide] was tested, and the “CREATININE (RATE BLANKED) Change from Baseline, Mean (SD)” value (shortened to “CREATININE (RATE BLANKED) Change … (SD)”) (DW4) was 1.2 (12.01), the “CREATININE (RATE BLANKED) Change from Baseline, Median” value (DW4) was 1.5 and the “CREATININE (RATE BLANKED), Mean (SD)” value (DW4) was 84.8 (30.01). The “GFR Change from Baseline, Mean (SD)” value (DW4) was −1.4 (12.80), the “GFR Change from Baseline, Median” value (DW4) was −0.6 and the “GFR, Mean (SD)” value (DW4) was 86.1 (36.99). For the same molecule, the “GFR, Median” value (DW4) was 77.0, the “UREA NITROGEN Change from Baseline, Mean (SD)” value (“UREA NITROGEN Change … (SD)” below) (DW4) was −0.4 (2.16) and the “UREA NITROGEN Change from Baseline, Median” value (“UREA NITROGEN Change … Median” for short) (DW4) was −0.4. The “UREA NITROGEN, Mean (SD)” value (DW4) was 5.3 (2.09), the “UREA NITROGEN, Median” value (DW4) was 4.9 and the CREATININE (RATE BLANKED), Median (DW4) was 80 µmol/L. The “CREATININE (RATE BLANKED) Change … (SD)” value (DW8) was −1.1 (15.51), the “CREATININE (RATE BLANKED) Change from Baseline, Median” value (DW8) was 0.0 and the “CREATININE (RATE BLANKED), Mean (SD)” value (DW8) was 81.9 (27.34). For the same molecule, the “GFR Change from Baseline, Mean (SD)” value (DW8) was −0.1 (19.13), the “GFR Change from Baseline, Median” value (DW8) was 1.1 and the “GFR, Mean (SD)” value (DW8) was 89.1 (39.16). For the same molecule, the “GFR, Median” value (DW8) was 81.6, the “UREA NITROGEN Change … (SD)” value (DW8) was −0.4 (2.02) and the “UREA NITROGEN Change … Median” value (DW8) was −0.3. The “UREA NITROGEN, Mean (SD)” value (DW8) was 5.3 (1.58), the “UREA NITROGEN, Median” value (DW8) was 5.2 and the CREATININE (RATE BLANKED), Median (DW8) was 71 µmol/L. The “CREATININE (RATE BLANKED) Change … (SD)” value (DW12) was 1.8 (16.71), the “CREATININE (RATE BLANKED) Change from Baseline, Median” value (DW12) was 8.0 and the “CREATININE (RATE BLANKED), Mean (SD)” value (DW12) was 86.8 (29.41). For the same molecule, the “GFR Change from Baseline, Mean (SD)” value (DW12) was −3.1 (12.18), the “GFR Change from Baseline, Median” value (DW12) was −5.0 and the “GFR, Mean (SD)” value (DW12) was 85.7 (39.48). For the same molecule, the “GFR, Median” value (DW12) was 76.5, the “UREA NITROGEN Change … (SD)” value (DW12) was −0.8 (1.86) and the “UREA NITROGEN Change … Median” value (DW12) was −0.5. For the same molecule, the “UREA NITROGEN, Mean (SD)” value (DW12) was 4.8 (1.69), the “UREA NITROGEN, Median” value (DW12) was 4.4 and the CREATININE (RATE BLANKED), Median (DW12) was 80 µmol/L. The “CREATININE (RATE BLANKED) Change … (SD)” value (DW16) was −1.6 (13.06), the “CREATININE (RATE BLANKED) Change from Baseline, Median” value (DW16) was 0.0 and the “CREATININE (RATE BLANKED), Mean (SD)” value (DW16) was 82.1 (29.95). For the same molecule, the “GFR Change from Baseline, Mean (SD)” value (DW16) was 0.8 (12.08), the “GFR Change from Baseline, Median” value (DW16) was 0.9 and the “GFR, Mean (SD)” value (DW16) was 89.8 (38.02). The “GFR, Median” value (DW16) was 84.1, the “UREA NITROGEN Change … (SD)” value (DW16) was −0.5 (2.13) and the “UREA NITROGEN Change … Median” value (DW16) was −0.3. The “UREA NITROGEN, Mean (SD)” value (DW16) was 5.0 (1.73), the “UREA NITROGEN, Median” value (DW16) was 4.4 and the CREATININE (RATE BLANKED), Median (DW16) was 79 µmol/L. The “CREATININE (RATE BLANKED) Change … (SD)” value (DW20) was 0.7 (13.11), the “CREATININE (RATE BLANKED) Change from Baseline, Median” value (DW20) was 0.0 and the “CREATININE (RATE BLANKED), Mean (SD)” value (DW20) was 85.6 (28.77). For the same molecule, the “GFR Change from Baseline, Mean (SD)” value (DW20) was −2.0 (16.60), the “GFR Change from Baseline, Median” value (DW20) was 0.9 and the “GFR, Mean (SD)” value (DW20) was 83.2 (32.77). The “GFR, Median” value (DW20) was 74.0, the “UREA NITROGEN Change … (SD)” value (DW20) was −0.6 (1.94) and the “UREA NITROGEN Change … Median” value (DW20) was −0.3. For the same molecule, the “UREA NITROGEN, Mean (SD)” value (DW20) was 5.0 (1.80), the “UREA NITROGEN, Median” value (DW20) was 5.2 and the CREATININE (RATE BLANKED), Median (DW20) was 77.5 µmol/L. For the same molecule, the “CREATININE (RATE BLANKED) Change … (SD)” value (DW24) was −2.9 (14.03), the “CREATININE (RATE BLANKED) Change from Baseline, Median” value (DW24) was −0.5 and the “CREATININE (RATE BLANKED), Mean (SD)” value (DW24) was 82.8 (31.57).
